# Data taken from US9415067B2, “Genetic test for liver copper accumulation in dogs and low copper pet diet” (Mars, Inc., priority 2009, dated 2016).
# Legend:
# [1] = tested on: hepatic copper accumulation; assay: Diet trial with randomized placebo-controlled zinc application: quantitative hepatic copper by neutron activation analysis of liver biopsies; type: in vivo, dog
# Description: All dogs were fed the same diet. […] The pharmacist was the only person aware of group allocations until completion of the study. Hepatic copper concentrations and histopathology were assessed along with clinical examinations and blood-work before and after treatment for a mean of 8 months (range 5-13), and 16 months (range 12-25). Plasma zinc concentrations were measured at additional time points during treatment.
# All dogs had completed their treatment with penicillamine prior to the start of this study. A medical history was obtained from all dogs and a physical examination was performed. […] Two biopsies were fixed in 10 percent neutral buffered formalin, and one biopsy was stored in a copper-free container for quantitative copper determination.
# A quantitative assay for copper in liver tissue was performed by neutron activation analysis, according to a protocol described by Teske et al, using the facilities described by Bode (Bode, P. (1990) Journal of Trace and Microprobe Techniques 8: 139; Teske et al. (1992) Vet Rec 131: 30-32). Quantitative copper concentrations were measured in lyophilised liver biopsies and reported in mg/kg dry weight liver.
# All dog owners were provided with the same specially manufactured diet. […] Metabolizable energy (measured according to Association of American Feed Control Officials protocol): 1650 kcal/kg as fed). […]
# [2] = Pharmacokinetic study of oral zinc gluconate, plasma zinc by atomic absorption spectrometry; type: in vivo; conditions: mean of dog 1 and dog 2
# Description: Two unrelated nine-year old, healthy Labrador Retrievers (1 female and 1 male) were used in a pharmacokinetic study. Food was withheld for a 12-hour period prior to oral administration of zinc, and during the initial 6-hour testing period. Water was freely available. […] Heparinized blood samples (4 ml) were collected from the jugular vein before dosing (time 0) and 15, 30, 45, 60, 90, 120 minutes, and 4, 8, 12 and 24 hours after application of the drug. Plasma was stored at −20° C. until analysis for zinc using atomic absorption spectrometry.
# In addition the test was used to detect a difference between group-1 and group-2 before the study, at recheck-1, and at recheck-2 (significance level p<0.05).
# [3] = tested on: hepatic copper accumulation; assay: Example 7: hepatic copper before penicillamine, after penicillamine and after diet; type: in vivo, dog; conditions: all dogs fed the diet of Example 6, data not shown
# Description: FIG. 3 illustrates the effectiveness of the diet of the invention on hepatic copper concentrations (mg/kg dry weight) in 18 Labrador Retrievers compared with the effect of penicillamine alone. The key to the x-axis is as follows: 1=pre-penicillamine, 2=post-penicillamine/pre-food, 3=post-food. […] The dotted line represents the normal level of hepatic copper for adult dogs.
# During an investigation of the effect of zinc on hepatic copper concentration, hepatic copper concentration was measured in 18 pure-bred Labrador Retrievers. Half of the dogs were provided with a supplement of zinc and the other half were provided with a placebo. All of the dogs were fed the diet of Example 6. Hepatic copper 25 concentration was measured using the method of Example 6 at 3 time points: (1) before treatment with penicillamine; (2) after treatment with penicillamine but before treatment with the diet of Example 6; and (3) after the diet treatment.
# [4] = tested on: canine dermal fibroblast cells ATP7A^C/C, ATP7A^C/T, ATP7A^T/T; assay: 64Cu incorporation and efflux (washout) in canine primary dermal fibroblasts, gamma counting; type: cell-based, dog; conditions: 100 μM
# Description: FIGS. 7A and 7B show copper isotope measurements in canine primary fibroblast cells. Copper isotope (64Cu) measurements in ATP7A^C/C, ATP7A^C/T and ATP7A^T/T cells after (A) 24 h or 48 h incubation with 10 μM, 50 μM and 100 μM 64Cu, or (B) 24 hrs incubation, followed by extensive washing and incubation in non copper isotope media for 2 h. Gamma-counts were corrected for cell culture conditions by means of a protein and MTS assay. Data points for 24 hr incubation represent the mean+/−SEM from two independent experiments performed in duplicate and expressed as counts per minute (cpm) of total cell protein. Other data points represent mean+/−SEM from one experiment in duplicate.
# The canine dermal fibroblast cells CDFIB44, CDFIB62 and CDFIB111 were isolated from euthanized female Labradors. Blood samples, taken prior to euthanizing were subject to the genetic test of the invention to ascertain increased risk to the disease. CDFIB111 was homozygous for the ATP7A SNP and CDFIB62 was heterozygote. […] was used as a control. […]
# For copper treatment, cells were incubated in 10, 50, and 100 μM copper for 24 or 48 h. […] Emission was measured in individual tubes containing media, washing steps, or lysate in a Packard B5003 gamma counter (Packard BioScience Benelux, Groningen, the Netherlands) between 450 and 800 keV for 2 minutes. […] Cells were then analysed for copper as described above. Copper accumulation was normalized to the protein concentration of the cell lysate (quantified using a Bio Rad Protein Assay Kit, Bio Rad) and an MTS colorimetric assay (3-[4,5-dimethylthiazol-2-yl]-5-[3-carboxymethoxyphenyl]-2-[4-sulfophenyl]-2H-tetrazolium) (Promega) was run in parallel. This quantitative assay detects living but not dead cells. The absorbance at 490 nm (test wavelength) and at 650 nm (reference wavelength) was measured using an enzyme-linked immunosorbent assay microplate reader (Bio-Rad); wells containing culture medium but no cells served as blanks. […]
# [5] = 24 h incubation, 2 h of washout
compound,measurement,setting,value
zinc gluconate,effect of adjunctive zinc on the de-coppering effect of the diet,[1]; diet + zinc gluconate 7.5 mg/kg PO BID versus diet + placebo,did not amplify the de-coppering effect
same,apparent oral clearance (CL/F),[2],2.116898 mL/min/kg
same,difference between copper levels in dogs treated with zinc and with the placebo,[3],no significant difference
[64Cu] [Cu64],isotope retained by ATP7A^C/C cells,[4]; [5],approximately 45%
same,isotope retained by ATP7A^T/T cells,[4]; [5],~90%
same,increase in incorporation of copper in ATP7A^T/T and ATP7A^C/T cells compared to ATP7A^C/C cells,[4]; after 24 h and 48 h,approximately two-fold
CC(C)(S)[C@@H](N)C(=O)O [penicillamine],mean hepatic copper concentration after completion of treatment with penicillamine,"[1]; 24 Labradors at the start of the diet trial, reference range 400 mg/kg dry weight",894 mg/kg dry weight
